Measured values published in patent US10709705B2, “Aminopyrimidines as ALK inhibitors” (THE REGENTS OF THE UNIVERSITY OF MICHIGAN, priority 2016, dated 2020).
Like-named read-outs stand apart in the source and are kept apart here.

Experiments:
[1] = biological target: T1, ALK F1197M (Homo sapiens, UniProt Q9UM73); assay: Mutant ALK kinase inhibition, F1197M; type: biochemical; conditions: Table 5
T1 construct: Mutated ALK proteins were expressed in SF9 insect cells with N-terminal tags cleaved after purification; fused on or other part: N-terminal tag, cleaved after purification

[2] = biological target: T2, FES (Homo sapiens, UniProt P07332); assay: KINOMEscan kinase panel, FES; type: binding
T2 construct: purchased LeadHunter Discovery Services (currently DiscoverX Corporation), KINOMEscan screening service
Description: (§1) Cpd. No. 5 was screened for its activity against a panel of human kinases using the KINOMEscan™ screening platform from LeadHunter Discovery Services (currently DiscoverX Corporation (Fremont, Calif. 94538, United States). See Table 7.

[3] = biological target: ALK G1202R (Homo sapiens, UniProt Q9UM73, G1202R); assay: Mutant ALK kinase inhibition, Lance TR-FRET, G1202R; type: biochemical
Procedure: Mutated ALK proteins were expressed in SF9 insect cells with N-terminal tags cleaved after purification. […] The kinase reaction was performed in 50 mM HEPES (pH 7.5) with 1 mM EGTA, 1 mM MgCl2, and 2 mM DTT, 0.01% Tween-20 added right before the assay. […] The final mixture was incubated in the dark for 1 hour before the plate was read on a Tecan Infinite M-1000 multi-mode plate reader (Tecan, Durham N.C.) with an excitation wavelength of 320 nm.

[4] = biological target: T3, ALK L1196M (Homo sapiens, UniProt Q9UM73, L1196M); assay: Mutant ALK kinase inhibition, Lance TR-FRET, L1196M; type: biochemical; conditions: Table 5; ATP 100 μM
T3 construct: made in house; host or cells: SF9 insect cells
Procedure: (§2) The cytoplasmic domain (amino acid 1058-1620) of wild-type human ALK protein expressed as N-terminal GST-fusion protein was purchased from Carna Biosciences, Inc (Japan). Mutated ALK proteins were expressed in SF9 insect cells with N-terminal tags cleaved after purification. Kinase activities of all enzymes were assessed using a Lance® TR-FRET assay kit from Perkin Elmer Life Sciences (Waltham, Mass.). 2.5 μL of compound solution and 5 μL of protein solution were added into a black low volume 384 well microtiter plate which was incubated for 30 minutes with gentle shaking at room temperature, followed by adding 2.5 μL of fluorescently labeled peptide substrate (ULight™-IRS-1 (Tyr983) Peptide) and ATP mixture solution. The kinase reaction was performed in 50 mM HEPES (pH 7.5) with 1 mM EGTA, 1 mM MgCl2, and 2 mM DTT, 0.01% Tween-20 added right before the assay. Final concentrations of ATP, substrates, and DMSO were 100 μM, 20 nM, and 0.5%, respectively. […] The final mixture was incubated in the dark for 1 hour before the plate was read on a Tecan Infinite M-1000 multi-mode plate reader (Tecan, Durham N.C.) with an excitation wavelength of 320 nm. Emission intensities were measured at both 620 and 665 nm with the intensity ratio between 665 and 620 nm corresponding to the peptide substrate phosphorylation. […]

[5] = biological target: T4, INSR (Homo sapiens, UniProt P06213); assay: KINOMEscan kinase panel, INSR; type: binding
T4 construct: purchased LeadHunter Discovery Services (currently DiscoverX Corporation), KINOMEscan screening service
Description: as §1

[6] = biological target: ALK F1174L (Homo sapiens, UniProt Q9UM73, F1174L); assay: Cell based assay, ALK F1174L; parameters: key: + = active; −− = inactive; conditions: Table 5
[7] = biological target: T5, INSRR (Homo sapiens, UniProt P14616); assay: KINOMEscan kinase panel, INSRR; type: binding
T5 construct: purchased LeadHunter Discovery Services (currently DiscoverX Corporation), KINOMEscan screening service
Description: as §1

[8] = system: H3122 cells (EML4-ALK); assay: Cell growth inhibition assay (WST-8), H3122; type: cell-based; conditions: Homo sapiens, NCI-H3122, read-out: H3122 (nM) (EML4-ALK), 50% of cell growth inhibition (IC50), WST-8, versus DMSO control
Procedure: H3122 and Kappas-299 cells were purchased from American Type Culture Collection (Manassas, Va., USA) and were used within 2 months after initiating from original stocks. All cell lines were cultured as recommended. For cell growth inhibition assay, cells were treated with different concentrations of the tested compounds, diluted from stock to culture media containing a 0.2% DMSO as the final concentration. Cell viability was determined using the WST-8 cell proliferation assay kit (Dojindo Molecular Technologies) according to manufacturer's instructions. Three independent experiments in triplicates were performed.

[9] = Pharmacokinetics in SD rats; type: in vivo; conditions: Table 8 (SD rats); for AUC0-t (ng · h/mL) PO / AUC0-∞ (ng · h/mL) PO / Cmax(ng/mL) PO / Tmax (h) PO / t1/2 (h) PO: PO 10 mg/kg, 10 mg/kg
Procedure: Routine pharmacokinetics studies were performed for Cpd. No. 5 in SD rats and beagle dogs.

[10] = biological target: T6, FAK (Homo sapiens, UniProt Q05397); assay: KINOMEscan kinase panel, FAK; type: binding
T6 construct: purchased LeadHunter Discovery Services (currently DiscoverX Corporation), KINOMEscan screening service
Description: as §1

[11] = biological target: T7, ALK G1269A (Homo sapiens, UniProt Q9UM73, G1269A); assay: Mutant ALK kinase inhibition, Lance TR-FRET, G1269A; type: biochemical; conditions: Table 5; ATP 100 μM
T7 construct: made in house; host or cells: SF9 insect cells
Procedure: as §2

[12] = biological target: T8, ROS1 (Homo sapiens, UniProt P08922); assay: KINOMEscan kinase panel, ROS1; type: binding
T8 construct: purchased LeadHunter Discovery Services (currently DiscoverX Corporation), KINOMEscan screening service
Description: as §1

[13] = biological target: T9, LRRK2 (Homo sapiens, UniProt Q5S007); assay: KINOMEscan kinase panel, LRRK2; type: binding
T9 construct: purchased LeadHunter Discovery Services (currently DiscoverX Corporation), KINOMEscan screening service
Description: as §1

[14] = biological target: T10, wild-type human ALK protein (cytoplasmic domain, amino acid 1058-1620) (Homo sapiens, UniProt Q9UM73); assay: Wild-type ALK kinase inhibition, Lance TR-FRET assay; type: biochemical
T10 construct: The cytoplasmic domain (amino acid 1058-1620) of wild-type human ALK protein; purchased Carna Biosciences, Inc (Japan)
Procedure: The cytoplasmic domain (amino acid 1058-1620) of wild-type human ALK protein expressed as N-terminal GST-fusion protein was purchased from Carna Biosciences, Inc (Japan). Mutated ALK proteins were expressed in SF9 insect cells with N-terminal tags cleaved after purification. Kinase activities of all enzymes were assessed using a Lance® TR-FRET assay kit from Perkin Elmer Life Sciences (Waltham, Mass.). 2.5 μL of compound solution and 5 μL of protein solution were added into a black low volume 384 well microtiter plate which was incubated for 30 minutes with gentle shaking at room temperature, followed by adding 2.5 μL of fluorescently labeled peptide substrate (ULight™-IRS-1 (Tyr983) Peptide) and ATP mixture solution. The kinase reaction was performed in 50 mM HEPES (pH 7.5) with 1 mM EGTA, 1 mM MgCl2, and 2 mM DTT, 0.01% Tween-20 added right before the assay. Final concentrations of ATP, substrates, and DMSO were 100 μM, 20 nM, and 0.5%, respectively. […] Final ALK concentrations were 1 nM, 1 nM, InM, 128 nM, 2 nM, and 4 nM for wild-type, F1174L, L1196M, S1206Y, G1269A, and G1202R, respectively. The reaction was allowed to perform for 90 minutes in dark with gentle shaking at room temperature after which 10 μL of 20 mM EDTA and 2 nM Eu-W1024 anti-phosphotyrosine antibody (PT66) mixture solution in the detection buffer from the manufacturer was added to terminate the reaction and detect the phosphorylation of the peptide substrate. The final mixture was incubated in the dark for 1 hour before the plate was read on a Tecan Infinite M-1000 multi-mode plate reader (Tecan, Durham N.C.) with an excitation wavelength of 320 nm. Emission intensities were measured at both 620 and 665 nm with the intensity ratio between 665 and 620 nm corresponding to the peptide substrate phosphorylation. IC50 values of inhibitors were obtained by fitting the ratio of 665/620 nm vs inhibitor concentrations in a sigmoidal dose-response curve (variable slope) with a non-linear regression.

[15] = Sprague-Dawley, rat, in vivo, iv, 1 mg/kg, IV 1 mg/kg
[16] = listed as Cpd. No. 5 (solution)
[17] = listed as Cpd. No. 5 (suspension)

Cc1cc(Nc2ncc(Cl)c(Nc3ccccc3S(=O)(=O)C(C)C)n2)c(OC(C)C)cc1C1=CCN(C2CCOCC2)CC1 [Cpd. No. 5, 5-chloro-N2-(2-isopropoxy-5-methyl-4-(1-(tetrahydro-2H-pyran-4-yl)-1,2,3,6-tetrahydropyridin-4-yl)phenyl)-N4-(2-(isopropylsulfonyl)phenyl)pyrimidine-2,4-diamine]
IC50 [1]: 3.3 nM | Kd [2]: 12 nM | IC50 ([3]; Table 5, ATP 100 μM, read-out: IC50 (nM), G1202R): 9.2 nM | IC50 ([3]; Table 6, comparison with known ALK inhibitors, read-out: G1202R IC50): 9.2 nM | IC50 [4]: 0.73 nM | Kd [5]: 54 nM | F1174L (c) [6]: −− (c) | Kd [7]: 32 nM | IC50 [8]: 27 nM | Cmax [9, 15]: 234 ng/mL | Tmax [9, 15]: 4.98 min | AUC(0-t) ([9]; Sprague-Dawley, rat, in vivo, iv, 1 mg/kg, IV 1 mg/kg, read-out: AUC0-t (ng · h/mL) IV): 506 ng·h/mL | AUC(0-inf) ([9]; Sprague-Dawley, rat, in vivo, iv, 1 mg/kg, IV 1 mg/kg, read-out: AUC0-∞ (ng · h/mL) IV): 576 ng·h/mL | half-life ([9]; Sprague-Dawley, rat, in vivo, iv, 1 mg/kg, IV 1 mg/kg, read-out: t1/2 (h) IV (converted)): 3.94 h | MRT inf ([9]; Sprague-Dawley, rat, in vivo, IV 1 mg/kg): 4.54 h | clearance ([9]; Sprague-Dawley, rat, in vivo, IV 1 mg/kg, read-out: CL (iv) (converted)): 29.2 mL/min/kg | Vd ([9]; Sprague-Dawley, rat, in vivo, IV 1 mg/kg, read-out: Vss (iv)): 7.97 L/kg | F(AUC0-t) ([9]; PO 10 mg/kg vs IV 1 mg/kg, solution): 31.1% | AUC0-t (ng · h/mL) PO [9, 16]: 1759 ng·h/mL | AUC0-∞ (ng · h/mL) PO [9, 16]: 1788 ng·h/mL | Cmax(ng/mL) PO [9, 16]: 153 ng/mL | Tmax (h) PO [9, 16]: 2.67 h | t1/2 (h) PO [9, 16]: 3.93 h | AUC0-t (ng · h/mL) PO [9, 17]: 719 ng·h/mL | AUC0-∞ (ng · h/mL) PO [9, 17]: 733 ng·h/mL | Cmax(ng/mL) PO [9, 17]: 75.9 ng/mL | Tmax (h) PO [9, 17]: 3.67 h | t1/2 (h) PO [9, 17]: 4.05 h | Kd [10]: 5.4 nM | IC50 [11]: 4.3 nM | Kd [12]: 0.73 nM | Kd [13]: 6.5 nM | IC50 ([14]; Table 4, target not given, Cpd. No. 5 value equals WT ALK IC50 of Table 5, read-out: Inhibitory activity): 0.85 nM | IC50 ([14]; Table 5, ATP 100 μM, read-out: IC50 (nM), WT): 0.85 nM
